Laboratory results from patent US5210027A, “DNA encoding novel antimicrobial polypeptide and methods for obtaining such polypeptide” (INCYTE Pharmaceuticals, Inc., priority 1991, dated 1993).

What was measured:
Assay type in all cases: cell-based
[1] = system: Escherichia coli K12 (MC4100); assay: Microbicidal assay (colony forming units) against Escherichia coli
Experimental: (§1) Microbicidal activity was routinely tested against Escherichia coli K12 (MC4100), Streptococcus faecalis (ATCC Accession No. 29212) and Candida albicans (clinical isolate). Organisms from a single colony on agar plates were inoculated into liquid medium and cultured overnight at 37° C. Aliquots of the overnight culture were inoculated into fresh nutrient broth and grown to mid-exponential phase. Cultures were then diluted into the test medium to the appropriate concentration.
(§2) Samples from reverse-phase liquid chromatography to be tested for microbicidal activity were dried by vacuum centrifugation in Immulon I microtire plates in the presence of 50 μl 0.1% BSA. Dried samples were resuspended in 0.1% acetic acid and returned to dryness by vacuum centrifugation. Samples were then resuspended in assay buffer and after appropriate dilutions of samples had been made, test organisms were added to the wells and incubation at 37° C. was carried out for 30 to 60 minutes. Killing of all organisms was carried out in 20 mM phosphate pH 6, 0.25M glucose and 0.02% Tween 20 unless otherwise indicated. A volume of the assay mixture corresponding to 200-300 organisms in the control assays were plated onto trypticase soy agar plates (Escherichia coli and Streptococcus faecalis) or spread onto Sabouraud dextrose agar plates (Candida albicans). Colony forming units were determined manually or by automated counting after overnight incubation at 37° C.

[2] = system: Streptococcus faecalis (ATCC Accession No. 29212); assay: Microbicidal assay (colony forming units) against Streptococcus faecalis
Experimental: as §1, §2

[3] = system: Candida albicans (clinical isolate); assay: Microbicidal assay (colony forming units) against Candida albicans; details: in vitro
Experimental: as §1
as §2, with “A volume of the assay mixture corresponding to 200-300 organisms in the control assays were plated onto trypticase soy agar plates (Escherichia coli and Streptococcus faecalis) or spread onto Sabouraud dextrose agar plates (Candida albicans).” left out

[4] = in vitro, 20 mM phosphate pH 6, 0.25M glucose, 0.02% Tween 20, 37° C., 30 to 60 minutes, relative to Peak 1 (defensins)

Substance: val-cys-ser-cys-arg-leu-val-phe-cys-arg-arg-thr-glu-leu-arg-val-gly-asn-cys-leu-ile-gly-gly-val-ser-phe-thr-tyr-cys-cys-thr-arg-val [Peak 2]
- effect of detergents Tween 20 and NP40 on microbicidal activity ([1]; against bacteria, FIG. 7): enhanced
- microbicidal activity compared with a mixture of previously described defensins ([1]; in vitro): significantly more active
- microbicidal activity, fold more active than Peak 1 [1, 4]: 15-30 fold
- effect of detergents Tween 20 and NP40 on microbicidal activity ([2]; against bacteria, FIG. 7): enhanced
- microbicidal activity compared with a mixture of previously described defensins ([2]; in vitro): significantly more active
- concentration required to reach the indicated levels of killing (50% or 90%), fold less than for Peak 1 [2, 4]: about 100 fold
- microbicidal activity compared with a mixture of previously described defensins [3]: significantly more active
- microbicidal activity, fold more active than Peak 1 ([3]; 20 mM phosphate pH 6, 0.25M glucose, 0.02% Tween 20, 37° C., 30 to 60 minutes, relative to Peak 1 (defensins)): about 5 fold
